The source made the active and inactive calls. A value given as a limit tells only on which side of the number the result lay.

The target in test [1] is Scavenger receptor class B member 1 (Mus musculus, UniProt Q61009). The test is described as follows: mouse SR-BI DiI-HDL uptake blockers – ldlA[mSR-BI] cells, fluorescence, cherry pick, dose response (AID 493194).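 Further: cellular uptake of fluorescent DiI-labeled HDL measured as cell fluorescence.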 It is filed as functional, cell-based.
Test [2] can be described thus: M. tuberculosis H37Rv growth inhibitors, H37Rv strain (AID 1626). The format is functional.
For test [3], the target named is T1, Carboxy-terminal domain RNA polymerase II polypeptide A small phosphatase 1 (Homo sapiens, UniProt Q9GZU7).
T1 sequence (Q9GZU7 whole entry): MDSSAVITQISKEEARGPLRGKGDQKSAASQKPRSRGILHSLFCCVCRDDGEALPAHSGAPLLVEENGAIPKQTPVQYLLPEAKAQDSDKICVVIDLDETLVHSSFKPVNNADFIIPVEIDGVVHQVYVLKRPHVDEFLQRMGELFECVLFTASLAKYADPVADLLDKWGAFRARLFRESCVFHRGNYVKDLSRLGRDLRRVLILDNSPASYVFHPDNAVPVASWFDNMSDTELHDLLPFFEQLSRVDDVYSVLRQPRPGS
The test is described as follows: CTDSP1 inhibitors, concentration-response, biochemical, absorbance readout, ultra-high-throughput screen actives (AID 540297). The format is functional.

For test [4], the target named is T2, Bcl-2-like protein 10 (Homo sapiens, UniProt Q9HD36).
T2 sequence (Q9HD36 whole entry): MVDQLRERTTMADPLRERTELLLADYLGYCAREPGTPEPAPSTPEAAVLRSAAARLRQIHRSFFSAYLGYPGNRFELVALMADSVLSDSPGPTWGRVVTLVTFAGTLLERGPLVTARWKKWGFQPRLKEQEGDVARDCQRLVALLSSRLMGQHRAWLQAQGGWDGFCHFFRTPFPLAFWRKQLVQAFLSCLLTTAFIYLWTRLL
Briefly: Bcl-B/TR3 peptide binding disruption – biochemical, fluorescence polarization, FITC-TR3 peptide, selectivity assay for Bfl-1 inhibitor project, primary screen (AID 748).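 Further: fluorescence polarization from a fluorescein-labelled TR3 peptide binding purified Bcl-B.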 Background: Polarisation of emitted light reports the rotation of a fluorescent probe.

The target in test [5] is T3, Estrogen receptor beta (Homo sapiens, UniProt Q92731). The test is described as follows: blockers of SRC-3 recruitment to ERβ – biochemical, ELISA, streptavidin-HRP readout, orthogonal assay, confirmation (AID 1060). In general terms: In an ELISA, binding on a coated surface is turned into a signal by an enzyme label.
The target in test [6] is Estrogen receptor (Homo sapiens, UniProt P03372).
Test [7] addresses T3, Estrogen receptor beta.
Test [8] deals with T4, Short transient receptor potential channel 4 (Mus musculus, UniProt Q9QUQ5).
T4 sequence (Q9QUQ5 whole entry): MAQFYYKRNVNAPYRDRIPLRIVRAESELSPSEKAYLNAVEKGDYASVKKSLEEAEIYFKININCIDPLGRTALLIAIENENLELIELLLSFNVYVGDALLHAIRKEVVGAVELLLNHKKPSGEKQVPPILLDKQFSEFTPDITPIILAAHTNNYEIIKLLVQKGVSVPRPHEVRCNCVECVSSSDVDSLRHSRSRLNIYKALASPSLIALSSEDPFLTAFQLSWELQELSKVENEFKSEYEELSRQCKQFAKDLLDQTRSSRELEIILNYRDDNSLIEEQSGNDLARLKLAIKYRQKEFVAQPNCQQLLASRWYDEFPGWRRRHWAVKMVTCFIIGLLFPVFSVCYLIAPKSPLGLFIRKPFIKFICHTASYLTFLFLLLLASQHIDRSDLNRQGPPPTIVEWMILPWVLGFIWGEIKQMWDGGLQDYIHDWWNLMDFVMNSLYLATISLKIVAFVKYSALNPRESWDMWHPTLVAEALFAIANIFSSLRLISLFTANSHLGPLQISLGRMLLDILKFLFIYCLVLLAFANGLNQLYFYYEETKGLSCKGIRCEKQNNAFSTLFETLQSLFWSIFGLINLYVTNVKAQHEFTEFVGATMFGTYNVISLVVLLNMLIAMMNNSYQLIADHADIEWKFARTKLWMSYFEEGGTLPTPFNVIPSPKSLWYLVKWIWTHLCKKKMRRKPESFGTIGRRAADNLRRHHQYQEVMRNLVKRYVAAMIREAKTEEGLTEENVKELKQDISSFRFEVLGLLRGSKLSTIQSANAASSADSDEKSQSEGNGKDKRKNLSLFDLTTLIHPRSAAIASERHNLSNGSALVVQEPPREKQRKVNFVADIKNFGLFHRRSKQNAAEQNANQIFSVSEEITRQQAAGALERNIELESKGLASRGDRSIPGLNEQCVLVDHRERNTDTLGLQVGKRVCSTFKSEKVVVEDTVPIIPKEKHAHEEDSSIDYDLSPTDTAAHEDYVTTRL
Briefly: calcium entry via TRPC4 opening agents – cell-based, HEK293 TRPC4/mu-opioid, Fluo-4 calcium, dose response (AID 434937). The format is functional.

Test [9] can be described thus: Trypanosoma cruzi growth suppression in host cells – NIH3T3 host cells, beta-gal luminescence, confirmation (AID 2044).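 Further: intracellular parasites grown in NIH/3T3 mouse fibroblasts as host cells; luminescent beta-galactosidase reporter signal from transgenic T. cruzi replicating inside host cells; inhibitors lower the luminescence signal.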 The format is functional, cell-based.
A short description of test [10]: NIH3T3 cell viability loss – ATP luminescence, mouse fibroblasts, counter-screen, dose response (AID 2010).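 Further: cells exposed to compound for about 90 hours before reading.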 The format is functional, cell-based. (The purpose of a counterscreen is to sort out artefacts and off-target activity.)
In test [11] the test system is BJ. The test is described as follows: cells. The format is functional, cell-based. The following applies: Homo sapiens.
In test [12] the test system is BJ. Briefly: BJ-TERT-LT-ST fibroblast viability loss – cell-based, RAS-independent, luminescence, dose response (AID 1935).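 Further: BJ fibroblasts immortalized with TERT plus LT and ST oncogenes.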 It is filed as functional. The following applies: Homo sapiens.
Test [13] deals with BJ. Briefly: BJ-TERT fibroblast viability loss – cell-based, RAS-independent, luminescence, dose response (AID 1933). The following applies: Homo sapiens. It is filed as functional.
Test [14] is described as follows: DRD fibroblast viability loss – cell-based, non-viral oncogenic, luminescence, dose response (AID 1934). It is filed as functional. The following applies: Homo sapiens.
The test system of test [15] is Vero. Briefly: mammalian cell viability reduction – secondary assay, cytotoxicity control for West Nile virus antiviral project, dose response (AID 1650). It is filed as functional. The following applies: Chlorocebus sabaeus.
Test [16] deals with T5, E3 ubiquitin-protein ligase XIAP (Homo sapiens, UniProt P98170). Briefly: Counter Screen using XIAP-Bir3 for Chemical Antagonists of Bir1/2 domains of IAP-family anti-apoptotic proteins. [Related pubchem assays (depositor defined):AID1018, AID1449, AID1514, AID1638, AID1749, AID1750, AID488957, AID488963].
Test [17] addresses T5, E3 ubiquitin-protein ligase XIAP. The test is described as follows: small molecules displacing peptide from XIAP – biochemical, IAP family, fluorescence polarization (AID 1018). It is filed as functional.
Test [18] deals with T6, Hexokinase HKDC1 (Homo sapiens, UniProt Q2TB90).
T6 sequence (Q2TB90 whole entry): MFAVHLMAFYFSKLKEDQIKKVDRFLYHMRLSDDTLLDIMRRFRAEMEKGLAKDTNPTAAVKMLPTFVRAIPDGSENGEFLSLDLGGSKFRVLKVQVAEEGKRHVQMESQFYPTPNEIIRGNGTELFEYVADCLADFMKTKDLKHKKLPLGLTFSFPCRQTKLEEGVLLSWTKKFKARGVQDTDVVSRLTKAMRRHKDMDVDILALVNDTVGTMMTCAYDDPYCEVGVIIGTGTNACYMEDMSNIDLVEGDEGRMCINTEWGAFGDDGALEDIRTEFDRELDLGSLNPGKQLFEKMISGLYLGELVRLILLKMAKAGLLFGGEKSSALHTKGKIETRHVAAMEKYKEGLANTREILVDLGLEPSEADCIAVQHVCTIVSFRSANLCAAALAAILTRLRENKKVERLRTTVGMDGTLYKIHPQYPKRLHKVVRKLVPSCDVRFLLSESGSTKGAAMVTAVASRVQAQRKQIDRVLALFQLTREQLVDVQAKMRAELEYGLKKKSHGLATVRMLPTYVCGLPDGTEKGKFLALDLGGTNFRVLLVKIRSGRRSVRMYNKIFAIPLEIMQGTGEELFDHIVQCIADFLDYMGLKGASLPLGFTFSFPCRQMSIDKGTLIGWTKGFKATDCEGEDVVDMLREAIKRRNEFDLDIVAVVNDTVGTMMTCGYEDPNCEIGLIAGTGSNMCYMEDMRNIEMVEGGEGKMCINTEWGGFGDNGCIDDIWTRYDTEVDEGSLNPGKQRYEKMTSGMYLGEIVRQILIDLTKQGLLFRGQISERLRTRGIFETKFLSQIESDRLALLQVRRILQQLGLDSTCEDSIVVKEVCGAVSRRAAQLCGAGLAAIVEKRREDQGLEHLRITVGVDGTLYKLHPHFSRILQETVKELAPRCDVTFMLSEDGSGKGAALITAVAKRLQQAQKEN
Briefly: inhibition of HKDC1 glucose phosphorylation – biochemical, W721R variant, dose response (AID 504729). It is filed as functional.

The target of test [19] is Genome polyprotein (dengue virus type 2, UniProt P29990). Briefly: flavivirus cap methylation enzyme inhibition – biochemical, confirmation dose response, primary screen (AID 588689). It is filed as functional.
The nature of test [20]: Luminescence-based dose response cell-based high throughput screening assay for cytotoxic compounds using the IEC-6 intestinal epithelial cell line. [Related pubchem assays: 1858 (Summary AID.), 1825 (Counterscreen.), 1907 (Confirmation screen.)]. The format is functional.
A short description of test [21]: HEK-293T cell viability reduction – luminescence, B-cell screen hits, cytotoxicity control for BCR NF-kB inhibitor project, dose response (AID 489021).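 Further: HEK-293T cells carrying an NF-kB luciferase reporter; cells exposed to compound for about 14 hours before viability readout.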 It is filed as functional, cell-based.

T3 sequence (Q92731 whole entry): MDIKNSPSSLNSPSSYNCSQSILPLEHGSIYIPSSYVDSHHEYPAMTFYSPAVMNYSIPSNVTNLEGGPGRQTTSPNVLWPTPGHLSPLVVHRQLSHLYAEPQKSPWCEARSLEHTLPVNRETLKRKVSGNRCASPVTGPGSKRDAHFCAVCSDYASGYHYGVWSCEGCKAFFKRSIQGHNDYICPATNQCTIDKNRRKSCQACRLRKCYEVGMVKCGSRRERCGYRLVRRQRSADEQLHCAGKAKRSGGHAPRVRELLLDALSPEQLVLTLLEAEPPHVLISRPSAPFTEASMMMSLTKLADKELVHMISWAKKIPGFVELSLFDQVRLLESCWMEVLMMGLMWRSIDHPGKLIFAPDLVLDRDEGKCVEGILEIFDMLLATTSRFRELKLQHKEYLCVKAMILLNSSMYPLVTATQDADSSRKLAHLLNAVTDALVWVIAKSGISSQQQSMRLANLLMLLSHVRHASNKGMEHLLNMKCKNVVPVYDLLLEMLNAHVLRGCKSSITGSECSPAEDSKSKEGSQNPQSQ
Sequence of Scavenger receptor class B member 1 (Q61009 whole entry): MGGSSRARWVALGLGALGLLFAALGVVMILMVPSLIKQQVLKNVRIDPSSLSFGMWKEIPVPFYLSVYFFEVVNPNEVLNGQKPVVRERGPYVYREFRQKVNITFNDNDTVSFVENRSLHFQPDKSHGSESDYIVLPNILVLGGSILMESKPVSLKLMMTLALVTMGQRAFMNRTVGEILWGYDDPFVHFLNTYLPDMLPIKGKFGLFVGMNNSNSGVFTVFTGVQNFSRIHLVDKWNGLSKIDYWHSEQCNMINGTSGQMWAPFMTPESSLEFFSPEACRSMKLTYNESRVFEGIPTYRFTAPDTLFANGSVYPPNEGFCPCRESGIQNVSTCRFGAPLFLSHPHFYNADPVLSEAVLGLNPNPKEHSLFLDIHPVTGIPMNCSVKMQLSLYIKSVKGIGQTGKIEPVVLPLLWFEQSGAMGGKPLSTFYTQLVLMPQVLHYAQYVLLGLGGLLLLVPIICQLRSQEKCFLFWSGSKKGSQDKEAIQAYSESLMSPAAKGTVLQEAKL
Sequence of Estrogen receptor (P03372 whole entry): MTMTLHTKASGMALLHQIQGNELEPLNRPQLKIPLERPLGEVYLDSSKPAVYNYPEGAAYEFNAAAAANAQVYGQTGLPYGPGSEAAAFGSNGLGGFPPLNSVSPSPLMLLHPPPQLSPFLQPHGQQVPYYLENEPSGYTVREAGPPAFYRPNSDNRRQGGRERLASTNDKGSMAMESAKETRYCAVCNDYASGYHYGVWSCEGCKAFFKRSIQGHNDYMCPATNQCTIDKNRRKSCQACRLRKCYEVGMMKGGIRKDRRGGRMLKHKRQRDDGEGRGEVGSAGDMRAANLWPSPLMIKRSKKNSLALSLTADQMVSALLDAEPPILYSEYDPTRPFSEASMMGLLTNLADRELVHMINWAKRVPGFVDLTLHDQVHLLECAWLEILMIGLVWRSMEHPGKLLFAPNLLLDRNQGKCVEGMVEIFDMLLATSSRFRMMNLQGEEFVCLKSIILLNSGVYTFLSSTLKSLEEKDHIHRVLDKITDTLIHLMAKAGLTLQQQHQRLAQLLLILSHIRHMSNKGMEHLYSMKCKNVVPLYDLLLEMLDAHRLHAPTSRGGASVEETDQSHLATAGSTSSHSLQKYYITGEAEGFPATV
T5 sequence (P98170 whole entry): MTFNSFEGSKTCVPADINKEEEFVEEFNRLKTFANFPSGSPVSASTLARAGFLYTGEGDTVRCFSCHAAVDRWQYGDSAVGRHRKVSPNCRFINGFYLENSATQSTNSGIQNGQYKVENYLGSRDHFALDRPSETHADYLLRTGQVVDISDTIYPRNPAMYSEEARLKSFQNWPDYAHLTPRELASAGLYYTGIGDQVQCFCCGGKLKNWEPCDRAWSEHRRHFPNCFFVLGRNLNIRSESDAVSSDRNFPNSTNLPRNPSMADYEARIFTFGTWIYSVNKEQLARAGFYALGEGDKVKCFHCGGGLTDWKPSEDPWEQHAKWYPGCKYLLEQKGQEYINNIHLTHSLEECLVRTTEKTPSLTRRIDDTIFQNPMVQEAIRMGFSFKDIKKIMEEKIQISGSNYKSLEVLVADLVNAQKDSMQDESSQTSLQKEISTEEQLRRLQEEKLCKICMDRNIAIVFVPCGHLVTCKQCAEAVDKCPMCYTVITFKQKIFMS
Sequence of Genome polyprotein (P29990 2492-3391 limits assumed): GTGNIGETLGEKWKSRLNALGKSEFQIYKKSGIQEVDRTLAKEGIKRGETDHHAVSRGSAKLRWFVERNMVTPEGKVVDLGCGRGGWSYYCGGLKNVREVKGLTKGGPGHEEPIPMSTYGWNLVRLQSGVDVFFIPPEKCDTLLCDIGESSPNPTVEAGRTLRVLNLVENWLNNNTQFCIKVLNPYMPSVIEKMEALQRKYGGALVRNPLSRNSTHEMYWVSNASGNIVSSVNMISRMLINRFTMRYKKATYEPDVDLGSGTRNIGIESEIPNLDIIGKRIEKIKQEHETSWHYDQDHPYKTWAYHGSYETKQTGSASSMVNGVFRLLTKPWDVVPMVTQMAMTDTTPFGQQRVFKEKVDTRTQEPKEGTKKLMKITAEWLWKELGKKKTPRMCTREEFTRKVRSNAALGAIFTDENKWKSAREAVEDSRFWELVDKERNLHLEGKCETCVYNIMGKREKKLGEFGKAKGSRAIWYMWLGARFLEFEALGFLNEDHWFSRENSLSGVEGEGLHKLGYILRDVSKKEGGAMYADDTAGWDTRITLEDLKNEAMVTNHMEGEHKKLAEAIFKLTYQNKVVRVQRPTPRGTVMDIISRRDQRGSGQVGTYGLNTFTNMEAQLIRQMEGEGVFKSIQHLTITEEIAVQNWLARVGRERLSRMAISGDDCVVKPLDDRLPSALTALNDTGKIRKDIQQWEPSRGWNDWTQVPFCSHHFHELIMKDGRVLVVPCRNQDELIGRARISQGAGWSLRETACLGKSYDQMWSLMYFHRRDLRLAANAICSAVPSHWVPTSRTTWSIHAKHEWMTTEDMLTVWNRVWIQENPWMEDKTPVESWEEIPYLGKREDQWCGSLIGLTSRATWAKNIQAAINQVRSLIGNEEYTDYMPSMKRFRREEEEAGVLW

One may read the AC50 as the midpoint of the concentration-response curve, whichever way the signal moves. In the case of `N#Cc1sc2nc(C3CC3)cc(-c3ccc(Cl)cc3)c2c1N`, the AC50 in test [1] was 2.36 µM (active).
The IC50 is the point on the concentration scale where inhibition reaches its midpoint. For `CCOC(=O)c1ccc(NC(=O)CSc2nnc(COc3ccccc3OC)n2C)cc1`, the IC50 in test [2] was > 100 µM (active).
As to `Cc1cc(Cl)ccc1OCC(=O)OC(C)C(=O)N(C)C` (stereo not given), the IC50 in [3] was 15.3 µM (active); in test [4], > 100 µM (inactive); in [5] it was < 0.023 µM (not active); in [6] it was 37 µM (not active); in [7] it was 16.7 µM (active).
By EC50 is commonly meant the midpoint of the concentration-response curve. On to `Nc1c(C(=O)c2ccccc2)sc2nsc(SCCN3CCCC3)c12`, for which the EC50 in test [8] was 5.96 µM (active); in test [9], 0.636 µM (active); in test [10], 14.9 µM (active); in test [11], 7.28 µM (active); in [12] it was 12.5 µM (active); in [13], 12.8 µM (active). Besides, in test [14], the EC50 is 15.1 µM (active).
Take `CCc1ccc(NC(=O)C2CCCN(S(=O)(=O)c3ccc4nc(O)ccc4c3)C2)cc1` (stereo not given): the AC50 in test [1] was 27.5 µM (active).
Broadly, the CC50 is the concentration that lowers cell viability or growth by half. On to `O=S(=O)(Nc1cc(Sc2cccc3cccnc23)c(O)c2ccccc12)c1ccccc1`, for which the concentration giving a half-maximal response (EC50) in test [11] is 22.1 µM (inconclusive); in test [12], > 75 µM (inconclusive); in test [13] it was 12.1 µM (inconclusive); in test [14], 16.1 µM (active). For the same molecule, in test [15], the 50% cytotoxic concentration (CC50) was 6.77 µM (active).
On to `O=C(O)c1cccc(N2C(=O)C3CC=C(Cl)CC3C2=O)c1` (stereo not given), for which the IC50 in test [3] is 10.3 µM (active); in test [16] it was > 100 µM (inactive); in test [17], > 100 µM (not active).
Consider `COC1=CC(=O)C(C2CC(=O)c3c(O)cc(O)cc3O2)=CC1=O` (stereo not given), for which the IC50 is 11.5 µM (active) in test [18] and 9.23 µM (active) in test [19].
For the molecule `Cc1[nH]c2ccccc2c1/C=N/Nc1nc(Nc2ccc(F)cc2)nc(N2CCOCC2)n1`, the IC50 in test [20] was 1.09 µM (active); in test [21], 51.2 µM (inactive).
As to `COc1ccc(-c2nnc(SC/C(O)=C(/C#N)C(C)=N)o2)cc1`, the IC50 in [5] was 0.35 µM (not active); in test [6], 30 µM (not active); in test [7], 11.2 µM (active).

Source of the values: ChEMBL document CHEMBL1201862, “PubChem BioAssay data set” (2004).
